According to patent US20180201609A1 (AURIGENE DISCOVERY TECHNOLOGIES LIMITED, priority 2015, published 2018):
Structures can show the parent of a compound that is named as a salt.

Target: T1, IRAK-4 enzyme (Homo sapiens, UniProt Q9NWZ3)
T1 construct: purchased Millipore, USA
T1 sequence (Q9NWZ3 1-460): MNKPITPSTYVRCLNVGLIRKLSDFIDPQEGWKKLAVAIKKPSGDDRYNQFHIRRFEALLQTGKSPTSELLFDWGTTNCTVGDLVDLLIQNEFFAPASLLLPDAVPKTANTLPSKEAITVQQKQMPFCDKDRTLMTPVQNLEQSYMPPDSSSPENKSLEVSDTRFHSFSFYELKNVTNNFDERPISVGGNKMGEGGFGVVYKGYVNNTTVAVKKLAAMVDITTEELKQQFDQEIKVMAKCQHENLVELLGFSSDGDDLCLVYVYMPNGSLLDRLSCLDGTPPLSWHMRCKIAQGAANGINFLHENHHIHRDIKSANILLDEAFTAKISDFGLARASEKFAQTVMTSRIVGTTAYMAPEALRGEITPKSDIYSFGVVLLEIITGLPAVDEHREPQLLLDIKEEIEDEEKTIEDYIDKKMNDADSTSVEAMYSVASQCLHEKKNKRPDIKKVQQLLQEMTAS
Test: IRAK-4 Biochemical Assay (TR-FRET)
Settings: recombinant IRAK-4 kinase, 20 μM ATP; for inhibition at 0.1 µM: 0.1 μM compound; for inhibition at 1 µM: 1 μM compound
Protocol: Compounds were tested for their potential to inhibit IRAK-4 enzyme in a TR-FRET assay using recombinant IRAK-4 kinase from Millipore, USA. The assay buffer was 50 mM Tris-HCl pH 7.5, 20 mM MgCl2, 1 mM EGTA, 2 mM DTT, 3 mM MnCl2 and 0.01% Tween 20.5 ng of IRAK-4 kinase was used for the assay. After pre-incubation of enzyme with test compound for 30 minutes at room temperature, a substrate mixture containing 100 nM Biotin Histone H3 (Millipore, USA) and 20 μM ATP (Sigma, USA) was added and the reaction was incubated for 30 min. Post incubation, the reaction was stopped by the addition of stop mix containing 40 mM EDTA, 1 nM of Europium-Anti-Phospho-Histone H3 (Ser10) antibody (Perkin Elmer, USA) and 20 nM SureLight Allophycocyanin-Streptavidin (Perkin Elmer, USA). The fluorescence emission at 615 nm and 665 nm were measured at an excitation of 340 nm and the percent inhibition was estimated from the ratio of the fluorescence intensities [(F665/F615)×10000].
The compounds of the present invention were screened in the above mentioned assay and the percent inhibition data is summarized in the Table 1.

| SMILES | inhibition at 0.1 µM [%] | inhibition at 1 µM [%] |
| --- | --- | --- |
| Cc1cc(-c2nc(C(=O)Nc3cc4c(C)n(C)nc4nc3N3CCCCC3)co2)ccn1 [Example 26, N-(2,3-dimethyl-6-(piperidin-1-yl)-2H-pyrazolo[3,4-b]pyridin-5-yl)-2-(2-methylpyridin-4-yl)oxazole-4-carboxamide] | 94 | 97 |
| Cc1c2cc(NC(=O)c3coc(-c4ccnc(N)c4)n3)c(N3CCCCC3)nc2nn1C [Example 27, 2-(2-aminopyridin-4-yl)-N-(2,3-dimethyl-6-(piperidin-1-yl)-2H-pyrazolo[3,4-b]pyridin-5-yl)oxazole-4-carboxamide] | 97 | 98 |
| Cc1cc(-c2nc(C(=O)Nc3cc4c(C)nn(C)c4nc3N3CCC(CO)CC3)co2)ccn1 [Example 28, N-(6-(4-(hydroxymethyl)piperidin-1-yl)-1,3-dimethyl-1H-pyrazolo[3,4-b]pyridin-5-yl)-2-(2-methylpyridin-4-yl)oxazole-4-carboxamide] | 89 | 97 |
| Cc1nn(C)c2nc(N3CCC(CO)CC3)c(NC(=O)c3coc(-c4ccnc(N)c4)n3)cc12 [Example 29, 2-(2-aminopyridin-4-yl)-N-(6-(4-(hydroxymethyl)piperidin-1-yl)-1,3-dimethyl-1H-pyrazolo[3,4-b]pyridin-5-yl)oxazole-4-carboxamide] | 97 | 99 |
| COCCn1nc(C)c2cc(NC(=O)c3coc(-c4ccnc(N)c4)n3)c(N3CCC(CO)CC3)nc21 [Example 30, 2-(2-aminopyridin-4-yl)-N-(6-(4-(hydroxymethyl)piperidin-1-yl)-1-(2-methoxyethyl)-3-methyl-1H-pyrazolo[3,4-b]pyridin-5-yl)oxazole-4-carboxamide] | 86 | 99 |
| CN1CCN(CCn2ncc3cc(NC(=O)c4coc(-c5ccnc(N)c5)n4)c(N4CCC(O)CC4)cc32)CC1 [Example 31, 2-(2-aminopyridin-4-yl)-N-(6-(4-hydroxypiperidin-1-yl)-1-(2-(4-methylpiperazin-1-yl)ethyl)-1H-indazol-5-yl)oxazole-4-carboxamide hydrochloride] | 99 | 99 |
| O=C(Nc1cc2cnn(C3CCNCC3)c2cc1C1CC1)c1cccc(N2CCC(O)C2)n1 (stereo not drawn) [Example 32, N-(6-cyclopropyl-1-(piperidin-4-yl)-1H-indazol-5-yl)-6-(3-hydroxypyrrolidin-1-yl)picolinamide hydrochloride] | 19 | 80 |
| Cn1ncc2cc(NC(=O)c3cccc(N4CCC(O)C4)n3)c(N3CCCCC3)cc21 (stereo not drawn) [Example 33, 6-(3-hydroxypyrrolidin-1-yl)-N-(1-methy-6-(piperidin-1-yl)-1H-indazol-5-yl)picolinamide] | 43 | 81 |
| C=CCOCC1CCN(c2cc3c(cc2NC(=O)c2coc(-c4cccc(N)n4)n2)c(C)nn3C)CC1 [Example 34] | 25 | 46 |
| CCOCC1CCN(c2cc3c(cc2NC(=O)c2coc(-c4ccnc(N)c4)n2)c(C)nn3C)CC1 [Example 35, 2-(2-aminopyridin-4-yl)-N-(6-(4-(ethoxymethyl)piperidin-1-yl)-1,3-dimethyl-1H-indazol-5-yl)oxazole-4-carboxamide] | 95 | 96 |
| Cc1nn(C)c2cc(N3CCC(COCC4CC4)CC3)c(NC(=O)c3coc(-c4ccnc(N)c4)n3)cc12 [Example 36, 2-(2-aminopyridin-4-yl)-N-(6-(4-((cyclopropylmethoxy)methyl)piperidin-1-yl)-1,3-dimethyl-1H-indazol-5-yl)oxazole-4-carboxamide] | 81 | 85 |
| Cc1nn(C)c2cc(N3CCC(CO)CC3)c(NC(=O)c3cccc(-c4ccc(N)nc4)n3)cc12 [Example 37, 6′-amino-N-(6-(4-(hydroxymethyl)piperidin-1-yl)-1,3-dimethyl-1H-indazol-5-yl)-[2,3′-bipyridine]-6-carboxamide hydrochloride] | 14 | 75 |
| Cc1nn(C)c2cc(N3CCC(CO)CC3)c(NC(=O)c3coc(-c4cc(N)ncc4Cl)n3)cc12 [Example 38, 2-(2-amino-5-chloropyridin-4-yl)-N-(6-(4-(hydroxymethyl)piperidin-1-yl)-1,3-dimethyl-1H-indazol-5-yl)oxazole-4-carboxamide hydrochloride] | 50 | 90 |
| Cc1nn(C)c2cc3c(cc12)NC(=O)c1coc(n1)-c1ccnc(c1)NCCCOCC1CCN3CC1 [Example 39, (Z)-51,53-dimethyl-51H-8-oxa-4,12-diaza-2(2,4)-oxazola-5(5,6)-indazola-1(4,2)-pyridina-6(1,4)-piperidinacyclododecaphan-3-one] | 4 | 72 |
| Cn1cc2cc(NC(=O)c3ccc(N4CCC(O)C4)cn3)c(N3CCCCC3)nc2n1 (stereo not drawn) [Example 40, 5-(3-hydroxypyrrolidin-1-yl)-N-(2-methyl-6-(piperidin-1-yl)-2H-pyrazolo[3,4-b]pyridin-5-yl)picolinamide] | 0 | 57 |
| Cn1cc2cc(NC(=O)c3coc(-c4cccc(N)n4)n3)c(N3CCCCC3)cc2n1 [Example 41, 2-(6-aminopyridin-2-yl)-N-(2-methyl-6-(piperidin-1-yl)-2H-indazol-5-yl)oxazole-4-carboxamide] | 96 | 97 |
| Cn1cc2cc(NC(=O)c3coc(-c4cccc(N)n4)n3)c(N3CCOCC3)cc2n1 [Example 42, 2-(6-aminopyridin-2-yl)-N-(2-methyl-6-morpholino-2H-indazol-5-yl)oxazole-4-carboxamide] | 86 | 97 |
| Cn1cc2cc(NC(=O)c3cccc(-c4ccnc(N)c4)n3)c(N3CCCCC3)cc2n1 [Example 43, 2′-amino-N-(2-methyl-6-(piperidin-1-yl)-2H-indazol-5-yl)-[2,4′-bipyridine]-6-carboxamide hydrochloride] | 97 | 96 |
| Cn1cc2cc(NC(=O)c3cccc(-c4ccc(N)nc4)n3)c(N3CCCCC3)cc2n1 [Example 44, 6′-amino-N-(2-methyl-6-(piperidin-1-yl)-2H-indazol-5-yl)-[2,3′-bipyridine]-6-carboxamide] | 98 | 97 |
| COc1ccc(C(=O)Nc2cc3cn(C)nc3cc2N2CCCCC2)nc1-c1ccnc(N)c1 [Example 45, 2′-amino-3-methoxy-N-(2-methyl-6-(piperidin-1-yl)-2H-indazol-5-yl)-[2,4′-bipyridine]-6-carboxamide] | 9 | 27 |
| Cn1cc2cc(NC(=O)c3cccc(-c4cccc(N)n4)n3)c(N3CCCCC3)cc2n1 [Example 46, 6′-amino-N-(2-methyl-6-(piperidin-1-yl)-2H-indazol-5-yl)-[2,2′-bipyridine]-6-carboxamide] | 93 | 96 |
| Cn1cc2cc(NC(=O)c3cccc(-c4ccnc(N)n4)n3)c(C3CC3)cc2n1 [Example 47, 6-(2-aminopyrimidin-4-yl)-N-(6-cyclopropyl-2-methyl-2H-indazol-5-yl)picolinamide] | 77 | 95 |
| Cn1cc2cc(NC(=O)c3cccc(-c4ccc(N)nc4)n3)c(C3CC3)cc2n1 [Example 48, 6′-amino-N-(6-cyclopropyl-2-methyl-2H-indazol-5-yl)-[2,3′-bipyridine]-6-carboxamide] | 96 | 98 |
| Cn1cc2cc(NC(=O)c3cccc(-c4ccc(N)nc4)n3)c(N3CCOCC3)cc2n1 [Example 49, 6′-amino-N-(2-methyl-6-morpholino-2H-indazol-5-yl)-[2,3′-bipyridine]-6-carboxamide] | 96 | 97 |
| Cn1cc2cc(NC(=O)c3cccc(-c4ccnc(N)c4)n3)c(N3CCOCC3)cc2n1 [Example 50, 2′-amino-N-(2-methyl-6-morpholino-2H-indazol-5-yl)-[2,4′-bipyridine]-6-carboxamide hydrochloride] | 86 | 95 |
| Cn1cc2cc(NC(=O)c3cccc(-c4cccc(N)n4)n3)c(C3CC3)cc2n1 [Example 51, 6′-amino-N-(6-cyclopropyl-2-methyl-2H-indazol-5-yl)[2,2′-bipyridine]-6-carboxamide hydrochloride] | 57 | 92 |
| Cn1cc2cc(NC(=O)c3cccc(-c4ccnc(N)c4)n3)c(C3CC3)cc2n1 [Example 52, 2′-amino-N-(6-cyclopropyl-2-methyl-2H-indazol-5-yl)-[2,4′-bipyridine]-6-carboxamide] | 93 | 96 |
